Results reported in patent US9511134B2, “Inducing immune responses to influenza virus using polypeptide and nucleic acid compositions” (priority 2006, dated 2016).
Like-named read-outs stand apart in the source and are kept apart here. Where no end group is shown, it is not given here.

Key:
Assay in all cases: biochemical
Type in all cases: binding
DRB1*0101 = target: T1, DRB1*0101 (Homo sapiens, UniProt P01903+P01911, A100R/D57E/F55L/F60I/F76Y/I96L/L162R/M171V/P40L/Q125E/R42F/V115G/Y59C)
T1 construct: made in house; host or cells: EBV-transformed homozygous human B cell lines, transfected fibroblasts or single-allele 721.221 transfectants

DRB1*0401 = target: T2, DRB1*0401 (Homo sapiens, UniProt P01903+P01911, A100K/A169T/F76Y/I96L/K127E/L162R/M171V/N62H/P40V/Q125Y/R42H/S133A/S149N/S66Y/V115G/V209L/W38E); conditions: read-out: IC50 nM to purified HLA DRB1*0401
T2 construct: made in house; host or cells: EBV-transformed homozygous human B cell lines, transfected fibroblasts or single-allele 721.221 transfectants

DRB1*1302 = DRB1*1302 (Homo sapiens, UniProt P01903+P01911, A100E/A169T/K41T/L162R/M171V/P40S/Q125H/Q178H/Q39Y/Q99D/R42S/S66N/T262R/V115G/W38E/Y61H); conditions: read-out: IC50 nM to purified HLA DRB1*1302
DRB1*1302, sequence (P01903 26-254 limits assumed, other chains not shown): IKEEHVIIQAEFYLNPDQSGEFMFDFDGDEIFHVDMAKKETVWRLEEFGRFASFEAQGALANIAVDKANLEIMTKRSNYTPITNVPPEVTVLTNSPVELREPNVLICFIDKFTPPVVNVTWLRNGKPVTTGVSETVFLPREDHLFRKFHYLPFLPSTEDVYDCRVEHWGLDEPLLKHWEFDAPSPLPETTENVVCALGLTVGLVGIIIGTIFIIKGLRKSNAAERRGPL

DRB1*1501 = target: T3, DRB1*1501 (Homo sapiens, UniProt P01903+P01911); conditions: read-out: IC50 nM to purified HLA DRB1*1501
T3 construct: made in house; host or cells: EBV-transformed homozygous human B cell lines, transfected fibroblasts or single-allele 721.221 transfectants

DRB4*0101 = target: T4, DRB4*0101 (Homo sapiens, UniProt P01903+P13762, G164S)
T4 construct: made in house; host or cells: EBV-transformed homozygous human B cell lines, transfected fibroblasts or single-allele 721.221 transfectants

[1] = IC50 nM to purified HLA DRB1*0101
[2] = IC50 nM to purified HLA DRB1*0101, Table 4
[3] = IC50 nM to purified HLA DRB4*0101
[4] = IC50 nM to purified HLA DRB4*0101, Table 4

Compound	IC50 (DRB1*0101; [1])	IC50 (DRB1*0101; [2])	IC50 (DRB1*0401; Table 4)	IC50 (DRB1*0401)	IC50 (DRB1*1302)	IC50 (DRB1*1501; Table 4)	IC50 (DRB1*1501)	IC50 (DRB4*0101; [3])	IC50 (DRB4*0101; [4])
CC[C@H](C)[C@H](N)C(=O)N[C@@H](Cc1ccc(O)cc1)C(=O)N[C@@H](CCC(N)=O)C(=O)N[C@H](C(=O)N[C@@H](CC(C)C)C(=O)N[C@@H](CO)C(=O)N[C@H](C(=O)N[C@@H](Cc1ccc(O)cc1)C(=O)N[C@@H](CO)C(=O)N[C@H](C(=O)N[C@H](C(=O)N[C@@H](C)C(=O)N[C@@H](CO)C(=O)N[C@@H](CO)C(=O)N[C@@H](CC(C)C)C(=O)N[C@@H](C)C(=O)O)C(C)C)[C@@H](C)O)[C@@H](C)CC)[C@@H](C)CC [Flu.HA.529]	55 nM	55 nM	89 nM	89 nM	13 nM	4.7 nM	4.7 nM	18 nM	18 nM
CC[C@H](C)[C@H](N)C(=O)N[C@@H](CC(C)C)C(=O)N[C@@H](CO)C(=O)N[C@H](C(=O)N[C@@H](Cc1ccc(O)cc1)C(=O)N[C@@H](CO)C(=O)N[C@H](C(=O)N[C@H](C(=O)N[C@@H](C)C(=O)N[C@@H](CO)C(=O)N[C@@H](CO)C(=O)N[C@@H](CC(C)C)C(=O)N[C@@H](C)C(=O)N[C@@H](CC(C)C)C(=O)N[C@@H](C)C(=O)N[C@H](C(=O)O)[C@@H](C)CC)C(C)C)[C@@H](C)O)[C@@H](C)CC [Flu.HA.532]	11 nM	11 nM	91 nM	91 nM	7.6 nM	20 nM	20 nM	824 nM	824 nM
CC[C@H](C)[C@H](NC(=O)[C@@H]1CCCN1C(=O)[C@H](CCCNC(=N)N)NC(=O)[C@@H](NC(=O)[C@H](CCCCN)NC(=O)[C@H](CC(C)C)NC(=O)[C@H](Cc1c[nH]c2ccccc12)NC(=O)[C@H](CCC(=O)O)NC(=O)[C@H](CCSC)NC(=O)[C@H](CC(C)C)NC(=O)[C@H](C)NC(=O)[C@@H](N)CCC(=O)O)[C@@H](C)O)C(=O)N[C@@H](CC(C)C)C(=O)N[C@@H](CO)C(=O)N1CCC[C@H]1C(=O)O [Flu.M1.43]	9.5 nM				380 nM		18 nM	5510 nM	
CC[C@H](C)[C@H](NC(=O)[C@H](CCCNC(=N)N)NC(=O)[C@@H](NC(=O)[C@H](CO)NC(=O)[C@H](CC(N)=O)NC(=O)[C@H](CC(=O)O)NC(=O)[C@H](CCCCN)NC(=O)[C@H](CO)NC(=O)[C@H](Cc1ccc(O)cc1)NC(=O)[C@@H](NC(=O)[C@H](C)NC(=O)[C@@H](N)Cc1c[nH]c2ccccc12)C(C)C)[C@@H](C)CC)C(=O)NCC(=O)N[C@@H](CO)C(=O)N[C@@H](CCCCN)C(=O)O [Flu.NA.77]	5400 nM			1600 nM	36 nM		642 nM	19500 nM	
CC[C@H](C)[C@H](NC(=O)[C@H](CCC(N)=O)NC(=O)[C@H](Cc1ccc(O)cc1)NC(=O)[C@H](CCC(=O)O)NC(=O)[C@H](CC(C)C)NC(=O)[C@@H](N)CC(N)=O)C(=O)NCC(=O)N[C@@H](Cc1ccc(O)cc1)C(=O)N[C@H](C(=O)N[C@@H](CS)C(=O)N[C@@H](CO)C(=O)NCC(=O)N[C@H](C(=O)N[C@@H](Cc1ccccc1)C(=O)NCC(=O)O)C(C)C)[C@@H](C)CC [Flu.NA.289]	1130 nM			975 nM	41 nM		13 nM	354 nM	
CC[C@H](C)[C@H](NC(=O)[C@@H](N)CC(=O)O)C(=O)N[C@@H](CC(C)C)C(=O)N[C@@H](CCSC)C(=O)N[C@@H](CCCNC(=N)N)C(=O)N[C@@H](CCSC)C(=O)N[C@@H](CO)C(=O)N[C@@H](CCCCN)C(=O)N[C@@H](CCSC)C(=O)N[C@@H](CCC(N)=O)C(=O)N[C@@H](CC(C)C)C(=O)NCC(=O)N[C@@H](CO)C(=O)N[C@@H](CO)C(=O)N[C@@H](CO)C(=O)O [Flu.NS2.87]	2140 nM			717 nM	423 nM		748 nM	11 nM	
ISGVKLESIGIYQILSI [Flu.HA.519]				3110 nM	408 nM		9.2 nM	16 nM	
